# Source: patent publication US20160120825A1 (TIANJIN TAIPU PHARMACEUTICAL SCIENCE & TECHNOLOGY …, priority 2013, published 2016)
# Where two headings read alike, the source gives them in different places.
# Key:
# [1] = system: brain nerve cells (hippocampal ventral dentate gyrus); conditions: adult rat, cited from earlier work
# [2] = solubility of crystalline X-form agomelatine in solvents; assay type: physicochemical
# [3] = stability in the process (DSC crystal form purity, HPLC relevant substances); assay type: physicochemical; conditions: during formulation process
# Excerpt: (§1) Referring to the aforementioned test 6, tablets were manufactured according to formulation and process with hydroxyproplyl methyl cellulose and polyvinylpyrrolindone k30 in a concentration of 15% as a protective agent.
# Crystal form purity of the tablets was detected using DSC method with crystal forms and relevant substances as evaluation indexes. Regarding detection of relevant substances, HPLC method was adopted using imported drug as a standard.
# [4] = change of crystalline X-form raw material in pulverization, grinding, tabletting detected by DSC; assay type: physicochemical
# Excerpt: Change of the crystalline X-form raw material in pulverization, grinding, and tabletting (at a pressure of 10 kg) was detected by DSC (see FIGS. 1-4).
# [5] = test on influencing factors; assay type: physicochemical
# Experimental: as §1
# We investigated in combination with formulations of the present invention: the samples were allowed to stand in an open state for 30 days under the conditions of a high temperature of 60° C., a high humidity of RH 92%, and both high temperature and high humidity (40° C., RH75%), respectively. The results are as follows: Test results on influencing factors (%)
SMILES,cell proliferation and neuronal regeneration in hippocampal ventral dentate gyrus ([1]; acute or subacute administration (4 hours or nine weeks)),cell proliferation and neuronal regeneration in hippocampal ventral dentate gyrus ([1]; long-term (three weeks) administration),"solubility ([2]; in methanol, ethanol, acetonitrile, DMSO, etc.)",solubility ([2]; in water),Crystal form purity ([3]; DSC),Relevant substances ([3]; HPLC) [%],X-form crystal purity (%) detected by DSC ([4]; after grinding) [%],X-form crystal purity (%) detected by DSC ([4]; after pulverization) [%],X-form crystal purity (%) detected by DSC ([4]; after tabletting (pressure of 10 kg)) [%],X-form crystal purity (%) detected by DSC ([4]; untreated crystalline X-form) [%],Crystal form purity % ([5]; 0 day) [%],"Crystal form purity % ([5]; 10 days at a high humidity (RH 92%), open state) [%]","Crystal form purity % ([5]; 10 days at a high temperature (60° C.), open state) [%]","Crystal form purity % ([5]; 10 days at both high temperature and high humidity (40° C., RH75%), open state) [%]"
"COc1ccc2cccc(CCNC(C)=O)c2c1 [Agomelatine, agomelatine]",no similar situation occurred,could increase cell proliferation and neuronal regeneration,–,–,–,–,–,–,–,–,–,–,–,–
COc1ccc2cccc(CCNC(C)=O)c2c1 [agomelatine],–,–,very soluble,almost insoluble,100,0.42,75.1,79.4,57.7,100,100,85,68,57
